Consider 27 compounds from patent US20220380378A1 (ESSA Pharma, Inc., priority 2021, published 2022).

Series [1] is described as follows: Microsomal stability assay, liver microsome half-life (human). The class given is in vitro ADME. As to conditions: pH 7.4; human liver microsomes 0.5 mg/mL, 1 μM compound, 37° C.; read-out: Liver microsome T1/2 Human. An excerpt: (§1) Microsomal Stability Assay: Microsomal stability assay is a widely used in vitro model to characterize the metabolic conversion by phase I enzymes, such as cytochrome P450 (CYP) enzymes. Since metabolism is known to be highly variable in different species, microsomal stability assay is commonly run in multiple species. Metabolic stability of testing compound can be evaluated using human, rat, mouse, or other animal liver or intestine microsomes to predict intrinsic clearance.
(§2) The assay was carried out in 96-well microtiter plates at 37° C. Reaction mixtures (25 μL) contained a final concentration of 1 μM test compound, 0.5 mg/mL liver microsomes protein, and 1 mM NADPH and/or 1 mM UDPGA (with alamethicin) in 100 mM potassium phosphate, pH 7.4 buffer with 3 mM MgCl2. The incubation was done with N=1, but duplicate incubation at each time point can be prepared if necessary. At each of the time points (for example, 0, 15, 30, and 60 minutes), 150 μL of quench solution (100% acetonitrile with 0.1% formic acid) with internal standard was transferred to each well. Besides the zero minute controls, mixtures containing the same components except the NADPH can also be prepared as the negative control. Verapamil was included as a positive control to verify assay performance. Plates were sealed, vortexed, and centrifuged at 4° C. for 15 minutes at 4000 rpm. The supernatant is transferred to fresh plates for LC/MS/MS analysis.
(§3) Summarized conditions: [Compound]=1 μM, [LM]=0.5 mg/mL, [NADPH]=1 mM and/or [UDPGA]=1 mM, Buffer=100 mM Potassium Phosphate, pH 7.4 with 3 mM MgCl2, Time=0, 15, 30, and 60 min, and Temperature=37° C.
(§4) All samples were analyzed on LC/MS/MS using an AB Sciex API 4000 instrument, coupled to a Shimadzu LC-20AD LC Pump system. Analytical samples were separated using a Waters Atlantis T3 dC18 reverse phase HPLC column (20 mm×2.1 mm) at a flow rate of 0.5 mL/min. The mobile phase consisted of 0.1% formic acid in water (solvent A) and 0.1% formic acid in 100% acetonitrile (solvent B).
(§5) The extent of metabolism is calculated as the disappearance of the test compound, compared to the 0-min time incubation. Initial rates are calculated for the compound concentration and used to determine half-life (t½). […]

The next series concerns the target T1, androgen receptor (AR) (Homo sapiens, UniProt P10275, T878A).
T1 sequence (P10275 1-920 T878A): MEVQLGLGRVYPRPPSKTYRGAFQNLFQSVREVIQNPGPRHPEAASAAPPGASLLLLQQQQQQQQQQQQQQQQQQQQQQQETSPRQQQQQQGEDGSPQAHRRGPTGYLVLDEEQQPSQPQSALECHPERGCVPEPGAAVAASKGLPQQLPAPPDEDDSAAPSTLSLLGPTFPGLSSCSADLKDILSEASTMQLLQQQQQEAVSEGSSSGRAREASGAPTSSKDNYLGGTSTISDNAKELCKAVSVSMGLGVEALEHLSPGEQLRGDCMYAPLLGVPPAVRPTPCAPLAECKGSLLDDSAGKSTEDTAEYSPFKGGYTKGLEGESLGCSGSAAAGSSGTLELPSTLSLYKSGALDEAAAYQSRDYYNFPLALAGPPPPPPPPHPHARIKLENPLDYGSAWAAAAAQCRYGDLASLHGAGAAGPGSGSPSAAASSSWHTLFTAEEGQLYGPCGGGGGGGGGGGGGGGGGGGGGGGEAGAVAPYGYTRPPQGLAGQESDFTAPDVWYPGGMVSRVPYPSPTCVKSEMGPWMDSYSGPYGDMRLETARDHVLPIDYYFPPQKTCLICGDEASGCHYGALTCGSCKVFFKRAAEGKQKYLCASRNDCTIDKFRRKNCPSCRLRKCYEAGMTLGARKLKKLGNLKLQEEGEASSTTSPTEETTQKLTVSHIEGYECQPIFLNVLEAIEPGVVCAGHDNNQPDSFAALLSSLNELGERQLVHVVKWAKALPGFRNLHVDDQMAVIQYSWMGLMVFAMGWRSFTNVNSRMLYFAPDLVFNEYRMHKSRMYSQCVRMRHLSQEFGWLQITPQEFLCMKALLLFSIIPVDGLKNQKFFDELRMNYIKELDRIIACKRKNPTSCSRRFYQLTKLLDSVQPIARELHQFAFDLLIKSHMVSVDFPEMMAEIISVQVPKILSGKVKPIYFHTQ
Description: Androgen-induced PSA (6.1 kb)-luciferase reporter assay in LNCaP cells (R1881 1 nM). The class given is cell-based. More on the design: endogenous in cells; host or cells: LNCaP. As to conditions: 24 h, read-out: PSA-Luc IC50 Range. The procedure, abridged:
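LNCaP cells transiently transfected with PSA (6.1 kb)-luciferase for 24 h, pretreated 1 h with compound or DMSO, then stimulated with 1 nM R1881 for 24 h. Firefly luciferase in lysates normalized to protein content; IC50 relative to R1881-induced vehicle activity.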
(In general: In a reporter assay the amount or activity of a reporter protein is the signal.)

Series [2] can be described thus: Microsomal stability assay, liver microsome half-life (mouse). It is filed as in vitro ADME. As to conditions: pH 7.4; mouse liver microsomes 0.5 mg/mL, 1 μM compound, 37° C.; read-out: Liver microsome T1/2 Mouse.
Description: as §1, §2, §3, §4, §5
(In general: Liver microsomes are a subcellular fraction often used to study metabolism.)

Series [3] in a line: Microsomal stability assay, liver microsome half-life (rat). As to conditions: pH 7.4; rat liver microsomes 0.5 mg/mL, 1 μM compound, 37° C.; read-out: Liver microsome T1/2 Rat. The class given is in vitro ADME.
Description: as §1, §2, §3, §4, §5

Series [4] is described as follows: Microsomal stability assay, liver microsome half-life (dog). The class given is in vitro ADME. As to conditions: pH 7.4; dog liver microsomes 0.5 mg/mL, 1 μM compound, 37° C.; read-out: Liver microsome T1/2 Dog.
Description: as §1, §2, §3, §4
(§6) The extent of metabolism is calculated as the disappearance of the test compound, compared to the 0-min time incubation. Initial rates are calculated for the compound concentration and used to determine half-life (t½).

Series [5] can be described thus: Microsomal stability assay, liver microsome half-life (monkey). It is filed as in vitro ADME. As to conditions: pH 7.4; monkey liver microsomes 0.5 mg/mL, 1 μM compound, 37° C.; read-out: Liver microsome T1/2 Monkey.
Description: as §1, §2, §3, §4, §6

Broadly, the IC50 is the concentration that inhibits the measured activity by half. Regarding `CS(=O)(=O)Nc1nccc(OCC23CC(C(=O)c4ccc(OCCCl)cc4)(C2)C3)n1` [Compound A7], the half-life at 1 μM in series [1] was determined as 1.4 h. For the same compound, the IC50 on androgen receptor (AR) is more than 2 µM. In the case of `CS(=O)(=O)Nc1nccc(COc2ccc3c(-c4cc(Cl)c(OCCCl)c(C#N)c4)cccc3c2)n1` [Compound A34, N-(4-(((5-(3-chloro-4-(2-chloroethoxy)-5-cyanophenyl)naphthalen-2-yl)oxy)methyl)pyrimidin-2-yl)methanesulfonamide], the half-life at 1 μM in series [1] and in series [2] was more than 2 h in each case. Besides, the IC50 at androgen receptor (AR) lay in the range of 0.5 to 2 µM. For the compound `CS(=O)(=O)Nc1nccc(COc2ccc3c(c2)CCC=C3c2cc(Cl)c(OCCCl)c(C#N)c2)n1` [Compound A32, N-(4-(((5-(3-chloro-4-(2-chloroethoxy)-5-cyanophenyl)-7,8-dihydronaphthalen-2-yl)oxy)methyl)pyrimidin-2-yl)methanesulfonamide], the half-life at 1 μM in series [1] was 1.14 h; in series [2] it was more than 2 h. For the same compound, the IC50 at androgen receptor (AR) was 0.5 to 2 µM.

As for `CS(=O)(=O)Nc1nccc(COc2nnc(-c3cc(Cl)c(OCCCl)c(C#N)c3)o2)n1` [Compound A37, N-(4-(((5-(3-chloro-4-(2-chloroethoxy)-5-cyanophenyl)-1,3,4-oxadiazol-2-yl)oxy)methyl)pyrimidin-2-yl)methanesulfonamide], the half-life at 1 μM in series [1] was more than 2 h. The IC50 on androgen receptor (AR) is 0.5 to 2 µM. Regarding `CS(=O)(=O)Nc1nccc(COc2nnc(-c3cc(Cl)c(OCCCl)c(C#N)c3)s2)n1` [Compound A41], the half-life at 1 μM in series [1] and in series [2] was more than 2 h throughout. Further, at androgen receptor (AR), the IC50 is more than 2 µM. Take `CS(=O)(=O)Nc1nccc(COc2ccc3c(c2)CCCC3c2cc(Cl)c(OCCCl)c(C#N)c2)n1` (stereo not drawn) [Compound A33, N-(4-(((5-(3-chloro-4-(2-chloroethoxy)-5-cyanophenyl)-5,6,7,8-tetrahydronaphthalen-2-yl)oxy)methyl)pyrimidin-2-yl)methanesulfonamide]: the half-life at 1 μM in series [1] and in series [2] was more than 2 h throughout. Also, the IC50 at androgen receptor (AR) was 0.5 to 2 µM. Take `CC(C)(c1ccc(OCc2ccnc(NS(C)(=O)=O)n2)cc1)c1cc(Cl)c2c(c1)OCCO2` [Compound A38]: the half-life at 1 μM in series [1] was more than 2 h. In addition, the IC50 at androgen receptor (AR) is more than 2 µM.

With `CC(C)(c1ccc(OC[C@H](O)CNS(C)(=O)=O)cc1)c1cc(Cl)c(OC[C@H](O)CCl)c(Cl)c1` [X, reference compound], the half-life at 1 μM in series [1] is more than 2 h. As for `CS(=O)(=O)Nc1nccc(OCC23CC(C(=O)c4cc(Cl)c(OCCCl)c(C#N)c4)(C2)C3)n1` [Compound A8], the half-life at 1 μM in series [1] was 0.161 h. In addition, the IC50 on androgen receptor (AR) is more than 2 µM. The matching figures for `CS(=O)(=O)Nc1nccc(OC2CCN(C(=O)c3cc(Cl)c(OCCCl)c(C#N)c3)CC2)n1` [Compound A6, N-(4-((1-(3-chloro-4-(2-chloroethoxy)-5-cyanobenzoyl)piperidin-4-yl)oxy)pyrimidin-2-yl)methanesulfonamide]: more than 2 h and more than 2 µM.

On to `CS(=O)(=O)Nc1nccc(COCCc2cc(Cl)c(OCCCl)c(C#N)c2)n1` [Compound A5], for which the half-life at 1 μM in series [1] is 0.93 h. The IC50 on androgen receptor (AR) is more than 2 µM. For `CS(=O)(=O)n1cc(COc2ccc3c(ccn3-c3cc(Cl)c(OCCCl)c(C#N)c3)c2)cn1` [Compound A52], the IC50 on androgen receptor (AR) was in the range of 0.5 to 2 µM. Same read-out and setting: to `CS(=O)(=O)N1CC2CC(Oc3ccc4c(ccn4-c4cc(Cl)c(OCCCl)c(C#N)c4)c3)CC2C1` (stereo not drawn) [Compound A223] belongs 0.5 to 2 µM; to `CS(=O)(=O)NC12CC(CNc3ccc4c(ccn4-c4cc(Cl)c(OCCCl)c(C#N)c4)c3)(C1)C2` [Compound A146], 0.5 to 2 µM; to `CS(=O)(=O)Nc1nccc(COc2ccc3c(c2)COC3c2cc(Cl)c(OCCCl)c(C#N)c2)n1` (stereo not drawn) [Compound A85], more than 2 µM. The same measure, in the same setting: to `CS(=O)(=O)NC1(CCOc2ccc3c(ccn3-c3cc(Cl)c(OCCCl)c(C#N)c3)c2)CC1` [Compound A227] belongs 0.5 to 2 µM; to `CS(=O)(=O)N[C@H]1CC[C@@H](COc2ccc3c(ccn3-c3cc(Cl)c(OCCCl)c(C#N)c3)c2)CC1` [Compound A208], more than 2 µM.

As for `CS(=O)(=O)Nc1nccc(COc2ccc3c(ccn3-c3cc(C#N)c(OCCCl)c(C(F)(F)F)c3)c2)n1` [Compound A21], the IC50 at androgen receptor (AR) is 0.5 to 2 µM. The same measure, in the same setting: then `CC(C)(c1ccc(OCc2ccnc(NS(C)(=O)=O)n2)c(Cl)c1)c1cc(Cl)c(OCCCl)c(C#N)c1` [Compound A102], with 0.5 to 2 µM; and `CS(=O)(=O)N1CCC(COc2ccc3c(ccn3-c3cc(Cl)c(OCCCl)c(C#N)c3)c2)CC1` [Compound A55], with more than 2 µM; and `CS(=O)(=O)N1CCN(Cc2ccc3c(ccn3-c3cc(Cl)c(OCCCl)c(C#N)c3)c2)CC1` [Compound A123], with more than 2 µM. The same measure, in the same setting: then `CC(C)(c1ccc(OCc2nccnc2N)cc1)c1cc(Cl)c(OCCCl)c(C#N)c1` [Compound A95], with less than 0.5 µM; and `CS(=O)(=O)N1CCC2(CCC2Oc2ccc3c(ccn3-c3cc(Cl)c(OCCCl)c(C#N)c3)c2)CC1` (stereo not drawn) [Compound A222], with 0.5 to 2 µM. For `CS(=O)(=O)N1CC(F)(COc2ccc3c(ccn3-c3cc(Cl)c(OCCCl)c(C#N)c3)c2)C1` [Compound A137], the IC50 on androgen receptor (AR) lay within 0.5 to 2 µM. Same read-out and setting: to `CC(C)(c1ccc(-c2ccc3ncncc3c2)cc1)c1cc(Cl)c(OCCCl)c(C#N)c1` [Compound A110] belongs more than 2 µM. Take `CNC(=O)c1ccc(N2C(=S)N(c3ccc(C#N)c(C(F)(F)F)c3)C(=O)C2(C)C)cc1F` [Enzalutamide, enzalutamide, reference compound]: the half-life at 1 μM in series [1], in series [2], in series [3], in series [4] and in series [5] was more than 2 h in each case. Take `CC(C)(c1ccc(OCc2cccc(S(N)(=O)=O)c2)cc1)c1cc(Cl)c(OCCCl)c(C#N)c1` [Compound A50]: the IC50 at androgen receptor (AR) is 0.5 to 2 µM.
